# In paper PMC7108291 (Spectrochimica Acta. Part A, Molecular and Biomolecular …, 2009):
# Key:
# Test in all cases: tryptophan fluorescence quenching titration at […] °C
# Format in all cases: binding
# [1] = biological target: DNase I (Bos taurus, UniProt P00639)
# [2] = biological target: T1, RNase A (Bos taurus, UniProt P61823)
# T1 sequence (P61823 27-150): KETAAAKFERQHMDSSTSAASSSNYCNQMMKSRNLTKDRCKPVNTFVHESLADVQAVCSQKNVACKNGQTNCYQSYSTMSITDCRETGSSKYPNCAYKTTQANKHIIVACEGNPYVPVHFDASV
# [3] = biological target: Taq polymerase (Thermus aquaticus, UniProt P19821)
# Chain of Taq polymerase (P19821 whole entry): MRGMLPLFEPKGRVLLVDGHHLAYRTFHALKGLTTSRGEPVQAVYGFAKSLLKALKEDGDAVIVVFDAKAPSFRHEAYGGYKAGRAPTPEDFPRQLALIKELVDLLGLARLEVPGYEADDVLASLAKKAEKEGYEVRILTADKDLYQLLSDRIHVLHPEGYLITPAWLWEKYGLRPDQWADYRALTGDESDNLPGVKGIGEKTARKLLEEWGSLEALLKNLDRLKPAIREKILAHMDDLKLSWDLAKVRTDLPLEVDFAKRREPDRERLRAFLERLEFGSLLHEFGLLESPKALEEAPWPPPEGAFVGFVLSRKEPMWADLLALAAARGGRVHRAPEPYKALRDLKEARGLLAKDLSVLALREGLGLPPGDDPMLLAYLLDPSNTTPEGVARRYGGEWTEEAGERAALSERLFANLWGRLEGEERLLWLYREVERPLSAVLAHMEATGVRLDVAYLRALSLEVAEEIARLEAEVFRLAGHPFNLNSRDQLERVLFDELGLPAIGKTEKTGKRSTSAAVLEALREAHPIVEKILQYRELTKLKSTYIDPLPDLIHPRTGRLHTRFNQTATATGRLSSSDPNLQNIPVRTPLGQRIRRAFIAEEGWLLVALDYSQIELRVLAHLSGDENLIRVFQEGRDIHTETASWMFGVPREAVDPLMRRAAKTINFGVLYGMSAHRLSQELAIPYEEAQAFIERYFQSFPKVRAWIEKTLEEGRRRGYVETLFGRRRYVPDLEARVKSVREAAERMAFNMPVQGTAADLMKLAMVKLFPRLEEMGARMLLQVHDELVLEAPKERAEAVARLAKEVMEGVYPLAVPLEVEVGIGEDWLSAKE
# Chain of DNase I (P00639 23-282): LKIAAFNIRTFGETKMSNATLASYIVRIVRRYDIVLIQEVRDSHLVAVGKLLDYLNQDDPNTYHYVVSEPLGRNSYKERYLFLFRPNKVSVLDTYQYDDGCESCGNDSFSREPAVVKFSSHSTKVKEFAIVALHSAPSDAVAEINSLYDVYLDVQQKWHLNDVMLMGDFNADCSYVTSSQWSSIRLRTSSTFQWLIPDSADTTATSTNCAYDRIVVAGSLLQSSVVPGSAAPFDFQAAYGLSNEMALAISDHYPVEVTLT
structure (smiles),measurement,setting,value
"O=C(O)C1=CC(=C(c2ccc(O)c(C(=O)O)c2)c2ccc(O)c(C(=O)O)c2)C=CC1=O [ATA, aurintricarboxylic acid]",Kd,[1],9.02 µM
same,Kd,[2],2.33 µM
same,Kd,[3],82 µM
